Format in all cases: cell-based
Test [1] relates to PC-3 cells (human prostate cancer cells). The test is described as follows: in vitro antitumor activity test, PC-3 cells, XTT colorimetry. As to conditions: PC-3 human prostate cancer cells, cultured 72 hours. Here is the method: (§1) WiDr cells (human colon cancer cells) subcultured in a culture medium composed of a MEM medium added with 10% fetal bovine serum, 25 mM HEPES and 0.1 mg/ml kanamycin under the conditions of 37° C. and 5% carbon dioxide gas were made into single floating cells by treating with trypsin/EDTA, and a single cell suspension of 3×10^4 cells per 1 ml was prepared using the MEM medium (added with 10% fetal bovine serum, 25 mM HEPES and 0.1 mg/ml kanamycin). After dissolving the test compounds in DMSO, they were diluted in a RPMI 1640 medium (added with 10% fetal bovine serum, 25 mM HEPES and 0.1 mg/ml kanamycin) and prepared so that the concentrations were 2.0×10^−9 to 2.0×10^−4 M.
(§2) 0.1 ml of the cell suspension was placed into each well of 96-well microplates, cultured for 24 hours to allow the cells to adhere to the microplates, then 0.1 ml of the sample solutions were added, and cultured for 72 hours at 37° C. in 5% carbon dioxide gas.
(§3) Afterwards, the level of growth inhibition at various sample concentrations was obtained using XTT colorimetry, and concentrations at which growth was inhibited by 50% (GI50 values [μM]) were calculated.
(§4) In addition, cells other than WiDr cells that were used, and the condition for preparing each single cell suspension were as follows.
PC-3 cells (human prostate cancer cells): 2×10^4 cells/ml
(In general: Tetrazolium dyes change colour on reduction, which living cells bring about.)

The test system of test [2] is WiDr cells (human colon cancer cells). In words: in vitro antitumor activity test, WiDr cells, XTT colorimetry. As to conditions: cultured 72 hours. The method, then:
as §1, §2, §3

Test [3] deals with A549 cells (human lung cancer cells). The test is described as follows: in vitro antitumor activity test, A549 cells, XTT colorimetry. As to conditions: cultured 72 hours. Here is the method: as §1, §2, §3, §4
A549 cells (human lung cancer cells): 2×10^4 cells/ml

The test system of test [4] is P388 cells (mouse leukemia cells). The test is described as follows: in vitro antitumor activity test, P388 cells, XTT colorimetry. As to conditions: cultured 72 hours. Here is the method:
P388 cells (mouse leukemia cells) passaged in the abdominal cavity of DBA/2 mice were extracted with ascitic fluid, and cultured in a RPMI 1640 medium (added with 10% fetal bovine serum, 25 mM HEPES, 0.1 mg/ml kanamycin and 5 μM 2-hydroxyethyldisulfide) at 37° C. in 5% carbon dioxide gas. After culturing for 16 hours, floating P388 cells were made into a single cell suspension of 4×10^4 cells per 1 ml using the same RPMI 1640 medium as given above. The test substances were dissolved in DMSO, then diluted in a RPMI 1640 medium (added with 10% fetal bovine serum, 25 mM HEPES and 0.1 mg/ml kanamycin) and prepared so that the concentrations were 2.0×10^−9 to 2.0×10^−4 M.
0.1 ml of the cell suspension was placed into each well of 96-well microplates, then 0.1 ml of the sample solutions were added, and cultured for 72 hours at 37° C. in 5% carbon dioxide gas.
as §3

The subject of test [5] is B16F10 cells (mouse melanoma [malignant melanoma] cells). In words: in vitro antitumor activity test, B16F10 cells, XTT colorimetry. The settings on record: B16-F10, cultured 72 hours. Here is the method: as §1, §2, §3, §4
B16F10 cells (mouse melanoma [malignant melanoma] cells): 1×10^4 cells/ml

Molecules are shown by their SMILES.

In general, GI50 refers to the concentration giving 50% growth inhibition. Lower therefore signals greater sensitivity of the cells.

Turning to `CCc1nc2c(N3CCN(N=O)CC3)nc(SCc3ccc(OC)c(F)c3)nc2n1C` [Compound 20, 8-ethyl-2-(3-fluoro-4-methoxybenzylsulfanyl)-9-methyl-6-(4-nitrosopiperazin-1-yl)-9H-purine], the GI50 in test [1] came out at 40 nM; in test [2] it was 80 nM; in test [3] it was 160 nM; in test [4], 80 nM; in test [5], 320 nM.

With `CCc1nc2c(N3CCOCC3)nc(SCc3ccc(OC)c(NC(=O)COC)c3)nc2n1C` [Compound 63, 8-ethyl-2-(3-methoxyacetylamino-4-methoxybenzylsulfanyl)-9-methyl-6-morpholino-9H-purine], the GI50 is 870 nM in test [1]; 3300 nM in test [2]; 1600 nM in test [3]; 1500 nM in test [4]; 1900 nM in test [5].

With `COc1ccc(CSc2nc(N(C)OC)c3ncn(C)c3n2)cc1F` [Compound 137, 2-(3-fluoro-4-methoxybenzylsulfanyl)-6-(N-methoxy-N-methylamino)-9-methyl-9H-purine], the GI50 in test [1] is 60 nM; in test [2], 70 nM; in test [3] it was 50 nM; in test [4], 60 nM; in test [5], 100 nM.

With `CCc1nc2c(N3CCOCC3)nc(SC(c3ccccc3)c3ccccc3)nc2n1C` [Compound 100, 2-benzhydrylsulfanyl-8-ethyl-9-methyl-6-morpholino-9H-purine], the GI50 in test [1] worked out at 150 nM; in test [2], 6110 nM; in test [3], 3900 nM; in test [4] it was 3290 nM; in test [5] it was 4630 nM.

Take `C/C=C/c1nc(SCc2ccc(OC)cc2)nc2c1ncn2C` [Compound 163, 2-(4-methoxybenzylsulfanyl)-9-methyl-6-(1-trans-propenyl)-9H-purine]: the GI50 in test [1] is 870 nM; in test [2], 510 nM; in test [3], 670 nM; in test [4], 280 nM; in test [5], 540 nM.

With `CCOc1ccc(CSc2nc(N3CCOCC3)c3nc(CC)n(C)c3n2)cc1N` [Compound 103, 2-(3-amino-4-ethoxybenzylsulfanyl)-8-ethyl-9-methyl-6-morpholino-9H-purine], the GI50 in test [1] worked out at 130 nM; in test [2] it was 280 nM; in test [3], 230 nM; in test [4] it was 170 nM; in test [5], 320 nM.

With `COc1ccc(CSc2nc(N3C=COCC3)c3ncn(C)c3n2)cc1[N+](=O)[O-]` [Compound 149, 6-(2,3-dihydro-[1,4]oxadin-4-yl)-2-(4-methoxy-3-nitrobenzylsulfanyl)-9-methyl-9H-purine], the GI50 in test [1] is 530 nM; in test [2] it was 350 nM; in test [3], 470 nM; in test [4], 490 nM; in test [5], 1380 nM.

With `CNc1nc(SCc2ccc(OC)cc2)nc2c1ncn2C` [Compound 26, 2-(4-methoxybenzylsulfanyl)-9-methyl-6-methylamino-9H-purine], the GI50 came to 110 nM in test [1]; 80 nM in test [2]; 110 nM in test [3]; 70 nM in test [4]; 340 nM in test [5].

Consider `CCc1nc2c(N(C)C)nc(SCc3ccc(OC)cc3)nc2n1C` [Compound 24, 6-dimethylamino-8-ethyl-2-(4-methoxybenzylsulfanyl)-9-methyl-9H-purine], for which the GI50 is 260 nM in test [1]; 210 nM in test [2]; 320 nM in test [3]; 200 nM in test [4]; 440 nM in test [5].

As for `CCCn1c(CC)nc2c(N3CCOCC3)nc(SCc3ccc(OC)cc3)nc21` [Compound 6, 8-ethyl-2-(4-methoxybenzylsulfanyl)-6-morpholino-9-propyl-9H-purine], the GI50 came to 600 nM in test [1]; 940 nM in test [2]; 870 nM in test [3]; 720 nM in test [4]; 1160 nM in test [5].

For the origin of these results see patent US9132130B2, “Purine derivative and antitumor agent using same” (ZENYAKU KOGYO KABUSHIKI KAISHA, priority 2009, dated 2015).
